Numbered stars: 1 amine (or outer) side, 2 acyl side, 3 side chain; on linkers, the order of the positions; unused ones are H or OH. Side chains are listed from the residue outwards. Peptide text beside a SMILES is read from it. * marks the point of attachment. γGlu = O=C(O)[C@H](CCC(=O)[*:2])N[*:1]; Palmitoyl = CCCCCCCCCCCCCCCC(=O)*; Ahx = NCCCCCC(=O)O; βAla = NCCC(=O)O

Common to all, as to assay: cAMP activity assay in assay medium (assay 1)
Assay type in all cases: cell-based

The target of test [1] is Human GLP1R (Homo sapiens, UniProt P43220). On the set-up: expressed in transfected cells. The conditions noted are these: assay medium; Table 4; read-out: hGLP1R EC50. The text has this: (§1) Biological Activity of Peptides in Cell-Based cAMP Activity Assay (Assay 1):
(§2) All sample dilutions were made in duplicate.

The target of test [2] is T1, Human GlucR (Homo sapiens, UniProt P47871).
T1 construct: expressed in transfected cells
The conditions noted are these: assay medium; Table 4; read-out: hGlucR EC50.
Description: as §1, §2

Test [3] concerns the target T2, Human GIPr (Homo sapiens, UniProt P48546).
T2 construct: expressed in transfected cells
T2 sequence (P48546 22-466): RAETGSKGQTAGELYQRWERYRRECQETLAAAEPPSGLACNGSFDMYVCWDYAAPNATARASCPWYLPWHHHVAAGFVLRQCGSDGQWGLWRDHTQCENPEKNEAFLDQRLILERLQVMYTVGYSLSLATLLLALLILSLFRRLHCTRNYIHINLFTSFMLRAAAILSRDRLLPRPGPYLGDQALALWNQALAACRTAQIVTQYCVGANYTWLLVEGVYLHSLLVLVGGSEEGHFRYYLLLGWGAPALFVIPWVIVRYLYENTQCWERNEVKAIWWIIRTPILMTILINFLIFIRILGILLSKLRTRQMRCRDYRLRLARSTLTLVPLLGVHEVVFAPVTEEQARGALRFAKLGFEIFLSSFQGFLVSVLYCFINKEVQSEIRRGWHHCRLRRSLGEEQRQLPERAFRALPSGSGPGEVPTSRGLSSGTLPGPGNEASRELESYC
Particulars: assay medium; Table 4; read-out: hGIPR EC50.
Description: as §1, §2

Human GLP1R, sequence (P43220 24-463): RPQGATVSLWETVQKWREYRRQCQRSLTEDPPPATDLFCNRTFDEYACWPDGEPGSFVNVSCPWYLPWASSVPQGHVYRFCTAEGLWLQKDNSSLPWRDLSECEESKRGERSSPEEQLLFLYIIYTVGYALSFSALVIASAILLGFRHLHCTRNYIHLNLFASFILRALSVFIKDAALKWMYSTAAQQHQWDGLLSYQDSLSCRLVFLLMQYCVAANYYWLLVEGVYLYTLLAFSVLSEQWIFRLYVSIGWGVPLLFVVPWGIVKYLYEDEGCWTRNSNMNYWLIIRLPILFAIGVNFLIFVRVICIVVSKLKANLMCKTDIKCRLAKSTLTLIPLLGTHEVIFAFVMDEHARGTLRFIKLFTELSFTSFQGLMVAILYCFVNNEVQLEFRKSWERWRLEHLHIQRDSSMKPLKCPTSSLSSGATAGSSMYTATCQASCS
T1 sequence (P47871 26-477): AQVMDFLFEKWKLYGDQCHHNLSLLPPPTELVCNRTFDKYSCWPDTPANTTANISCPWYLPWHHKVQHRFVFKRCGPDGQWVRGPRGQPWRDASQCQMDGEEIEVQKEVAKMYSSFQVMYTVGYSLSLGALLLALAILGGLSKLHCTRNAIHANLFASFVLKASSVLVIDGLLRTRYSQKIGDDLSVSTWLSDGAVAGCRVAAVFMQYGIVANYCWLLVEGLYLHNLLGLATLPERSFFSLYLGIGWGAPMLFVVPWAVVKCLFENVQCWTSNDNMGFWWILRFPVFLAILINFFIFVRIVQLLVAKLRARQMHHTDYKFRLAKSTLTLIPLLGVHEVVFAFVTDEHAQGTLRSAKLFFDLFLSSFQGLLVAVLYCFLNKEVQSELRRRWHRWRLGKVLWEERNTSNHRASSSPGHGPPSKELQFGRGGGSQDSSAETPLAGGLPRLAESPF

Turning to `CCCCCCCCCCCCCCCC(=O)N[C@@H](CCC(=O)NCCCC[C@H](NC(=O)[C@H](CCC(=O)O)NC(=O)[C@H](CO)NC(=O)[C@H](Cc1ccc(O)cc1)NC(=O)[C@H](CC(=O)O)NC(=O)[C@H](CO)NC(=O)[C@@H](NC(=O)[C@H](Cc1ccccc1)NC(=O)[C@@H](NC(=O)CNC(=O)[C@H](CCC(N)=O)NC(=O)[C@H](CO)NC(=O)[C@@H](N)Cc1c[nH]cn1)[C@@H](C)O)[C@@H](C)O)C(=O)N[C@@H](CC(C)C)C(=O)N[C@@H](CC(=O)O)C(=O)N[C@@H](CO)C(=O)N[C@@H](CCC(=O)O)C(=O)N[C@@H](CCCNC(=N)N)C(=O)N[C@@H](C)C(=O)N[C@@H](CCCNC(=N)N)C(=O)N[C@@H](CC(=O)O)C(=O)N[C@@H](Cc1ccccc1)C(=O)N[C@H](C(=O)N[C@@H](C)C(=O)N[C@@H](Cc1c[nH]c2ccccc12)C(=O)N[C@@H](CC(C)C)C(=O)N[C@H](C(=O)N[C@@H](C)C(=O)NCC(=O)NCC(N)=O)C(C)C)C(C)C)C(=O)O` [g802] (H-HSQGTFTSDYSEK([γGlu-Palmitoyl])LDSERARDFVAWLVAGG-NH2; N-terminus assumed), the EC50 came out at 0.0964 nM in test [1], 1.81 nM in test [2] and 91.2 nM in test [3].
With `CCCCCCCCCCCCCCCC(=O)N[C@@H](CCC(=O)NCCCC[C@H](NC(=O)[C@H](Cc1ccc(O)cc1)NC(=O)[C@H](CCCCN)NC(=O)[C@H](CO)NC(=O)[C@H](Cc1ccc(O)cc1)NC(=O)[C@H](CC(=O)O)NC(=O)[C@H](CO)NC(=O)[C@@H](NC(=O)[C@H](Cc1ccccc1)NC(=O)[C@@H](NC(=O)CNC(=O)[C@H](CCC(N)=O)NC(=O)[C@H](CO)NC(=O)[C@@H](N)Cc1c[nH]cn1)[C@@H](C)O)[C@@H](C)O)C(=O)N[C@@H](CC(=O)O)C(=O)N[C@@H](CO)C(=O)N[C@@H](CCCNC(=N)N)C(=O)N[C@@H](CO)C(=O)N[C@@H](C)C(=O)N[C@@H](CCCNC(=N)N)C(=O)N[C@@H](CC(=O)O)C(=O)N[C@@H](Cc1ccccc1)C(=O)N[C@H](C(=O)N[C@@H](CCC(=O)O)C(=O)N[C@@H](Cc1c[nH]c2ccccc12)C(=O)N[C@@H](CC(C)C)C(=O)N[C@H](C(=O)N[C@@H](C)C(=O)NCC(=O)NCC(N)=O)C(C)C)C(C)C)C(=O)O` [g803] (H-HSQGTFTSDYSKYK([γGlu-Palmitoyl])DSRSARDFVEWLVAGG-NH2; N-terminus assumed), the EC50 in test [1] turned out to be 0.0296 nM; in test [2] it was 0.0108 nM; in test [3], 32.9 nM.
`CCCCCCCCCCCCCCCC(=O)N[C@@H](CCC(=O)NCCCC[C@H](NC(=O)[C@H](Cc1ccc(O)cc1)NC(=O)[C@H](CCCCN)NC(=O)[C@H](CO)NC(=O)[C@H](Cc1ccc(O)cc1)NC(=O)[C@H](CC(=O)O)NC(=O)[C@H](CO)NC(=O)[C@@H](NC(=O)[C@H](Cc1ccccc1)NC(=O)[C@@H](NC(=O)CNC(=O)[C@H](CCC(N)=O)NC(=O)[C@H](CO)NC(=O)[C@@H](N)Cc1c[nH]cn1)[C@@H](C)O)[C@@H](C)O)C(=O)N[C@@H](CC(=O)O)C(=O)N[C@@H](CO)C(=O)N[C@@H](CCCNC(=N)N)C(=O)N[C@@H](CCCNC(=N)N)C(=O)N[C@@H](C)C(=O)N[C@@H](CCCNC(=N)N)C(=O)N[C@@H](CC(=O)O)C(=O)N[C@@H](Cc1ccccc1)C(=O)N[C@H](C(=O)N[C@@H](CCC(=O)O)C(=O)N[C@@H](Cc1c[nH]c2ccccc12)C(=O)N[C@@H](CC(C)C)C(=O)N[C@@H](CCC(=O)O)C(=O)N[C@@H](C)C(=O)NCC(=O)NCC(N)=O)C(C)C)C(=O)O` [g805] (H-HSQGTFTSDYSKYK([γGlu-Palmitoyl])DSRRARDFVEWLEAGG-NH2; N-terminus assumed): the EC50 was 0.0228 nM in test [1], 0.00144 nM in test [2] and 99.7 nM in test [3].
With `CCCCCCCCCCCCCCCC(=O)NCCCCCC(=O)NCCCC[C@H](NC(=O)[C@H](CCC(N)=O)NC(=O)[C@H](C)NC(=O)[C@H](C)NC(=O)[C@H](CCCNC(=N)N)NC(=O)[C@H](CO)NC(=O)[C@H](CC(=O)O)NC(=O)[C@H](CC(C)C)NC(=O)[C@H](Cc1ccc(O)cc1)NC(=O)[C@H](CCCCN)NC(=O)[C@H](CO)NC(=O)[C@H](Cc1ccc(O)cc1)NC(=O)[C@H](CC(=O)O)NC(=O)[C@H](CO)NC(=O)[C@@H](NC(=O)[C@H](Cc1ccccc1)NC(=O)[C@@H](NC(=O)CNC(=O)[C@H](CCC(N)=O)NC(=O)[C@H](CO)NC(=O)[C@@H](N)Cc1c[nH]cn1)[C@@H](C)O)[C@@H](C)O)C(=O)N[C@@H](Cc1ccccc1)C(=O)N[C@H](C(=O)N[C@@H](CCC(N)=O)C(=O)N[C@@H](Cc1c[nH]c2ccccc12)C(=O)N[C@@H](CC(C)C)C(=O)N[C@@H](CCC(=O)O)C(=O)N[C@@H](CCCNC(=N)N)C(=O)NCC(=O)NCC(N)=O)C(C)C` [g806] (H-HSQGTFTSDYSKYLDSRAAQK([Ahx-Palmitoyl])FVQWLERGG-NH2; N-terminus assumed), the results for the EC50 in test [1], in test [2] and in test [3] were 0.171 nM, 0.0099 nM and 105 nM, respectively.
In the case of `CCCCCCCCCCCCCCCC(=O)N[C@@H](CCC(=O)NCCCC[C@H](NC(=O)[C@H](Cc1ccc(O)cc1)NC(=O)[C@H](CCCCN)NC(=O)[C@H](CO)NC(=O)[C@H](Cc1ccc(O)cc1)NC(=O)[C@H](CC(=O)O)NC(=O)[C@H](CO)NC(=O)[C@@H](NC(=O)[C@H](Cc1ccccc1)NC(=O)[C@@H](NC(=O)CNC(=O)[C@H](CCC(N)=O)NC(=O)[C@H](CO)NC(=O)[C@@H](N)Cc1c[nH]cn1)[C@@H](C)O)[C@@H](C)O)C(=O)N[C@@H](CC(=O)O)C(=O)N[C@@H](CO)C(=O)N[C@@H](CCC(=O)O)C(=O)N[C@@H](CCCNC(=N)N)C(=O)N[C@@H](C)C(=O)N[C@@H](CCC(N)=O)C(=O)N[C@@H](CC(=O)O)C(=O)N[C@@H](Cc1ccccc1)C(=O)N[C@H](C(=O)N[C@@H](CCC(N)=O)C(=O)N[C@@H](Cc1c[nH]c2ccccc12)C(=O)N[C@@H](CC(C)C)C(=O)N[C@@H](CCC(=O)O)C(=O)N[C@@H](C)C(=O)NCC(=O)NCC(N)=O)C(C)C)C(=O)O` [g816], the EC50 was 0.0316 nM in test [1], 0.0011 nM in test [2] and 20 nM in test [3].
`CCCCCCCCCCCCCCCC(=O)N[C@@H](CCC(=O)NCCCC[C@H](NC(=O)[C@H](Cc1ccc(O)cc1)NC(=O)[C@H](CCCCN)NC(=O)[C@H](CO)NC(=O)[C@H](Cc1ccc(O)cc1)NC(=O)[C@H](CC(=O)O)NC(=O)[C@H](CO)NC(=O)[C@@H](NC(=O)[C@H](Cc1ccccc1)NC(=O)[C@@H](NC(=O)CNC(=O)[C@H](CCC(N)=O)NC(=O)[C@H](CO)NC(=O)[C@@H](N)Cc1c[nH]cn1)[C@@H](C)O)[C@@H](C)O)C(=O)N[C@@H](CC(=O)O)C(=O)N[C@@H](CO)C(=O)N[C@@H](CCCNC(=N)N)C(=O)N[C@@H](C)C(=O)N[C@@H](C)C(=O)N[C@@H](CCC(N)=O)C(=O)N[C@@H](CC(=O)O)C(=O)N[C@@H](Cc1ccccc1)C(=O)N[C@H](C(=O)N[C@@H](CCC(N)=O)C(=O)N[C@@H](Cc1c[nH]c2ccccc12)C(=O)N[C@@H](CC(C)C)C(=O)N[C@@H](CCC(=O)O)C(=O)N[C@@H](C)C(=O)NCC(=O)NCC(N)=O)C(C)C)C(=O)O` [g817] (H-HSQGTFTSDYSKYK([γGlu-Palmitoyl])DSRAAQDFVQWLEAGG-NH2; N-terminus assumed): the EC50 in test [1] was determined as 0.0251 nM; in test [2], 0.00168 nM; in test [3], 15.2 nM.
On the same counts, the results for `CCCCCCCCCCCCCCCC(=O)NCCCCCC(=O)NCCCC[C@H](NC(=O)[C@H](CO)NC(=O)[C@H](CC(=O)O)NC(=O)[C@H](CC(C)C)NC(=O)[C@H](Cc1ccc(O)cc1)NC(=O)[C@H](CCC(=O)O)NC(=O)[C@H](CO)NC(=O)[C@H](Cc1ccc(O)cc1)NC(=O)[C@H](CC(=O)O)NC(=O)[C@H](CO)NC(=O)[C@@H](NC(=O)[C@H](Cc1ccccc1)NC(=O)[C@@H](NC(=O)CNC(=O)[C@H](CCC(N)=O)NC(=O)[C@H](CO)NC(=O)[C@@H](N)Cc1c[nH]cn1)[C@@H](C)O)[C@@H](C)O)C(=O)N[C@@H](CCCNC(=N)N)C(=O)N[C@@H](C)C(=O)N[C@@H](C)C(=O)N[C@@H](CC(=O)O)C(=O)N[C@@H](Cc1ccccc1)C(=O)N[C@H](C(=O)N[C@@H](C)C(=O)N[C@@H](Cc1c[nH]c2ccccc12)C(=O)N[C@@H](CC(C)C)C(=O)N[C@@H](CCC(=O)O)C(=O)N[C@@H](CCCNC(=N)N)C(=O)NCC(=O)NCC(N)=O)C(C)C` [g818] (H-HSQGTFTSDYSEYLDSK([Ahx-Palmitoyl])RAADFVAWLERGG-NH2; N-terminus assumed) are 0.021 nM, 0.0089 nM and 94 nM.
`CCCCCCCCCCCCCCCC(=O)NCCC(=O)NCCCC[C@H](NC(=O)[C@H](CO)NC(=O)[C@H](CC(=O)O)NC(=O)[C@H](CC(C)C)NC(=O)[C@H](Cc1ccc(O)cc1)NC(=O)[C@H](CCCCN)NC(=O)[C@H](CO)NC(=O)[C@H](Cc1ccc(O)cc1)NC(=O)[C@H](CC(=O)O)NC(=O)[C@H](CO)NC(=O)[C@@H](NC(=O)[C@H](Cc1ccccc1)NC(=O)[C@@H](NC(=O)CNC(=O)[C@H](CCC(N)=O)NC(=O)[C@H](CO)NC(=O)[C@@H](N)Cc1c[nH]cn1)[C@@H](C)O)[C@@H](C)O)C(=O)N[C@@H](CCCNC(=N)N)C(=O)N[C@@H](C)C(=O)N[C@@H](CCCNC(=N)N)C(=O)N[C@@H](CC(=O)O)C(=O)N[C@@H](Cc1ccccc1)C(=O)N[C@H](C(=O)N[C@@H](C)C(=O)N[C@@H](Cc1c[nH]c2ccccc12)C(=O)N[C@@H](CC(C)C)C(=O)N[C@@H](CCC(=O)O)C(=O)N[C@@H](C)C(=O)NCC(=O)NCC(N)=O)C(C)C` [g819] (H-HSQGTFTSDYSKYLDSK([βAla-Palmitoyl])RARDFVAWLEAGG-NH2; N-terminus assumed): the values for the EC50 in test [1], in test [2] and in test [3] were 0.018 nM, 0.00234 nM and 103 nM, respectively.

One may read the EC50 as the concentration at which the effect is half-maximal.

Source of the values: US20200354426A1 (MEDIMMUNE LIMITED, priority 2016, published 2020).
